# Source: PubChem BioAssay AID1918945 (Molecular Pharmacology Branch, DTP, NCI, 2023)
# Tested on: 883617-216-R-J1-PDC complex spheroid viability
# Assay: Anticancer human tumor 883617-216-R-J1-PDC patient-derived bladder carcinoma cell line growth inhibition
# Details: for viability, T/C: stronger effect = lower value
# Source text: Multicellular complex tumor spheroid response to LSD1 Inhibitor Iadademstat in combination with a variety of drugs and investigational agents in selected tumor cell lines
# The current study was undertaken to assess response to LSD1 inhibitors in combination with standard-of-care drugs and investigational agents in solid tumor complex spheroid models as well as in the K-562 leukemia. Complex spheroids include a stromal component modeled by human endothelial cells (HUVEC) and fibroblasts modeled by human mesenchymal stem cells (MSCs). The concentration ranges selected for each drug and investigational agent were based upon clinically achievable concentrations if the clinical Cmax of the agent was known.
# Compounds. The drugs and investigational agents used in this study are listed on Table 1. All of the agents used, including staurosporine (NSC755774) and gemcitabine (NSC613327), were obtained from the Developmental Therapeutics Program, NCI. FDA-approved anticancer drugs are available from the NCI at http://dtp.nci.nih.gov/branches/dscb/oncology_drugset_explanation.html. Drugs and investigational agents were >95% pure by proton nuclear magnetic resonance (NMR) and liquid chromatography/mass spectrometry (LC/MS). Stock solutions were prepared at 400x in DMSO, stored at -70 degrees C, and diluted in fresh medium prior to their use. The final concentration of DMSO in cell culture wells never exceeded 0.25% (v/v). The FDA-approved anticancer drug set is available from the Developmental Therapeutics Program at https://dtp.cancer.gov/organization/dscb/obtaining/available_plates.htm. All drugs and investigational agents were tested over a range starting from a high concentration at or near the clinical Cmax and decreasing in half-log increments. If the clinical Cmax for an agent had not been determined, the highest concentration tested was 10 microM.
# Cell Lines. The patient-derived cancer cell (PDC) lines: 292921-168-R-J2-PDC, K24384-001-R-PDC, and 521955-158-R2-J5-PDC pancreatic carcinomas, 556581-035-R-J1 ovarian carcinoma, 324938-238-R-J1-PDC, 855422-203-R-J1-PDC and 883617-216-R-J1-PDC urothelial bladder carcinomas, 743489-274-T-PDC renal cell carcinoma, 138582-R-J1 Merkel cell tumor, K60290-347-R-J1 and K57222-313-R-J1-PDC glioblastomas, 653999-131-R-J2-PDC, LG0703-F948-PDC, and 349418-098-R-PDC non-small cell lung carcinomas, 885512-296-R-J2-PDC, 171881-019-R-J1-PDC breast carcinomas and 186277-243-T-J2-PDC and 233499-124-R-J2-PDC colon carcinomas were obtained from the NCI Patient-Derived Models Repository (PDMR, https://pdmr.cancer.gov). The established cell lines NCI/ADR-RES (RRID:CVCL_14520 and OVCAR-5 (RRID:CVCL_1628) ovarian carcinomas, 786-O (RRID:CVCL_1051) and A498 (RRID:CVCL_A498) renal cell carcinoma, NCI-H211 (ATCC, cat. CRL-5824; RRID:CVCL_1529), NCI-H196 (ATCC, cat. CRL-5823, RRID:CVCL_1509), SW 1271 (ATCC, cat. CRL-2177, RRID:CVCL_1716) and NCI-H1876 (ATCC, cat. CRL-5902, RRID:CVCL_1503) small cell lung carcinomas, MDA-MB-231 (RRID:CVCL_0062) and MDA-MB-468 (RRID:CVCL_0419)breast carcinomas (10-12). Pooled donor human umbilical vein endothelial cells (HUVEC, Lonza, cat. CC-2519) and human mesenchymal stem cells (hMSC, Lonza, cat. PT-2501) were purchased from Lonza (Walkersville, MD).
# Cell Culture. All cells were maintained in an incubator at 37 degrees C and 5% CO2 with 95% humidity. The PDC lines were cultured according to standard operating procedures established by the NCI PDMR (https://pdmr.cancer.gov). Briefly all PDCs were thawed and cultured in Matrigel-coated flasks prepared with a working solution of 1X Ham's F-12 nutrient mix, without supplementation (Invitrogen, Waltham, MA, cat. 11765054), 100 U/mL penicillin-streptomycin (Invitrogen, cat. 15140122), and 2.5% Matrigel (Corning Inc., Corning, NY, cat. 354248) for the first three passages. […]
# [1] = curve of first compound, second compound 0.1 µM
# [2] = curve of first compound, second compound 0.316 µM
# [3] = curve of first compound, second compound 1 µM
# [4] = curve of first compound, second compound 3.16 µM
# [5] = curve of first compound, second compound 10 µM
# [6] = second compound 0.1 µM, first compound 0.0316 µM
# [7] = second compound 0.1 µM, first compound 0.1 µM
# [8] = second compound 0.1 µM, first compound 0.316 µM
# [9] = second compound 0.1 µM, first compound 1 µM
# [10] = second compound 0.316 µM, first compound 0.0316 µM
# [11] = second compound 0.316 µM, first compound 0.1 µM
# [12] = second compound 0.316 µM, first compound 0.316 µM
# [13] = second compound 0.316 µM, first compound 1 µM
# [14] = second compound 1 µM, first compound 0.0316 µM
# [15] = second compound 1 µM, first compound 0.1 µM
# [16] = second compound 1 µM, first compound 0.316 µM
# [17] = second compound 1 µM, first compound 1 µM
# [18] = second compound 3.16 µM, first compound 0.0316 µM
# [19] = second compound 3.16 µM, first compound 0.1 µM
# [20] = second compound 3.16 µM, first compound 0.316 µM
# [21] = second compound 3.16 µM, first compound 1 µM
# [22] = second compound 10 µM, first compound 0.0316 µM
# [23] = second compound 10 µM, first compound 0.1 µM
# [24] = second compound 10 µM, first compound 0.316 µM
# [25] = second compound 10 µM, first compound 1 µM
# 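Further: exposure lasted seven days after three days of spheroid growth.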
# 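Wherever viability, T/C is given: 100% = DMSO vehicle control luminescence.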
SMILES,IC50 [1] [µM],IC50 [2] [µM],IC50 [3] [µM],IC50 [4] [µM],IC50 [5] [µM],"viability, T/C [6] [%]","viability, T/C [7] [%]","viability, T/C [8] [%]","viability, T/C [9] [%]","viability, T/C [10] [%]","viability, T/C [11] [%]","viability, T/C [12] [%]","viability, T/C [13] [%]","viability, T/C [14] [%]","viability, T/C [15] [%]","viability, T/C [16] [%]","viability, T/C [17] [%]","viability, T/C [18] [%]","viability, T/C [19] [%]","viability, T/C [20] [%]",other results
COc1cc(Nc2ncc3c(n2)-c2ccc(Cl)cc2C(c2c(F)cccc2OC)=NC3)ccc1C(=O)O + NC1CCC(NC2CC2c2ccccc2)CC1,> 1,0.262,0.322,> 1,> 1,61.3,53.3,51.5,50.7,58.7,53.3,48.8,49.1,54.6,49.4,48.8,53,58.8,50.8,55.5,"viability, T/C (second compound 0.1 µM, first compound 0.00316 µM): 96.2%; viability, T/C (second compound 0.1 µM, first compound 0.01 µM): 77.3%; viability, T/C (second compound 0.316 µM, first compound 0.00316 µM): 98.6%; viability, T/C (second compound 0.316 µM, first compound 0.01 µM): 81.1%; viability, T/C (second compound 1 µM, first compound 0.00316 µM): 94.8%; viability, T/C (second compound 1 µM, first compound 0.01 µM): 75.7%; viability, T/C (second compound 3.16 µM, first compound 0.00316 µM): 96.1%; viability, T/C (second compound 3.16 µM, first compound 0.01 µM): 83.7%; viability, T/C [21]: 56.2%; viability, T/C (second compound 10 µM, first compound 0.00316 µM): 93.5%; viability, T/C (second compound 10 µM, first compound 0.01 µM): 75.5%; viability, T/C [22]: 65.1%; viability, T/C [23]: 58.1%; viability, T/C [24]: 54.7%; viability, T/C [25]: 51.1%"
NC1CC1c1ccc(-c2cccc(O)c2)cc1 (configuration not stated),,,,,,,,,,,,,,,,,,,,,"viability, T/C (compound 0.1 µM): 107%; IC50 (compound alone, run of 12/07/2021): > 10 µM"
CC1(C)CCC(CN2CCN(c3ccc(C(=O)NS(=O)(=O)c4ccc(NCC5CCOCC5)c([N+](=O)[O-])c4)c(Oc4cnc5[nH]ccc5c4)c3)CC2)=C(c2ccc(Cl)cc2)C1 + NC1CC1c1ccc(-c2cccc(O)c2)cc1,7.41,7.2,6.43,6.41,4.92,115,116,125,129,128,130,131,129,115,121,111,121,124,109,106,"viability, T/C (second compound 0.1 µM, first compound 3.16 µM): 117%; viability, T/C (second compound 0.1 µM, first compound 10 µM): 26.2%; viability, T/C (second compound 0.316 µM, first compound 3.16 µM): 118%; viability, T/C (second compound 0.316 µM, first compound 10 µM): 23%; viability, T/C (second compound 1 µM, first compound 3.16 µM): 102%; viability, T/C (second compound 1 µM, first compound 10 µM): 17.4%; viability, T/C [21]: 115%; viability, T/C (second compound 3.16 µM, first compound 3.16 µM): 107%; viability, T/C (second compound 3.16 µM, first compound 10 µM): 14%; viability, T/C [22]: 90.9%; viability, T/C [23]: 96.8%; viability, T/C [24]: 79.6%; viability, T/C [25]: 83.1%; viability, T/C (second compound 10 µM, first compound 3.16 µM): 75.5%; viability, T/C (second compound 10 µM, first compound 10 µM): 11.2%"
